Test results published in US11832638B2, “N-acyl derivatives of gamma amino-butyric acid and beta alanine as food flavouring compounds” (GIVAUDAN SA, priority 2012, dated 2023).

What was measured:
[1] = UHT milk cream flavoured, non sweetened, different fat levels; conditions: 2 ppm, cream flavour 0.03%
Description: The following tests were carried out on dairy products processed by fermentation, pasteurization or UHT. The products contain fat, protein and calcium.
UHT Milk Cream Flavoured, Non Sweetened and Different Fat Levels
In a UHT milk containing 0% 1.5% and 3% fat, flavoured with a proprietary cream flavour dosed at 0.03%
C18:2-gaba was added at 2 ppm.
Samples were evaluated by expert tasters.
Tasters were asked to describe the samples focusing on authentic taste , mouthfeel, fullness, salivation, sweetness, juiciness, richness, long lastingness and fattiness.

[2] = Strawberry flavoured sugar sweetened yoghurt; conditions: 2 ppm, 1.5% fat yoghurt base, 8% sucrose, strawberry flavour 0.015%
Description: Strawberry Flavoured Sugar Sweetened Yoghurt
The base consisted of a 1.5% fat yoghurt base, sweetened with 8% sucrose by weight, flavoured with a proprietary strawberry flavour @ 0.015%.

[3] = Test in chocolate flavoured drink; conditions: 2 ppm, water, 4% sucrose, chocolate flavour 0.03%
Description: Test in Chocolate Flavoured Drink:
Base: Water, 4% sucrose, proprietary chocolate flavour at 0.03%

[4] = Vanilla flavoured milk 3.0% fat; conditions: 2 ppm, 4% sugar, vanillin 10 ppm, vanilla extract 0.03%
Description: Vanilla Flavoured Milk 3.0% Fat
In a 3% fat milk drink, sweetened with 4% sucrose by weight, flavoured with Vaniline @ 10 ppm and a Vanilla extract @ 0.03% C18:2-gaba, was added at 0.5 or 2 ppm.
Samples were evaluated by expert tasters. Tasters were asked to describe the samples focusing on authentic taste, mouthfeel, fullness, salivation, sweetness, juiciness, richness, long lastingness and fattiness.
Base: Milk 3% fat, 4% sugar, vanillin 10 ppm, vanilla extract 0.03%

[5] = Tasting in spreadable cheese ERU; conditions: 0.5 PPM in spreadable cheese ERU
Description: The following formulations were prepared and tasted by trained panelists.

[6] = Comparison in a strawberry drink; conditions: 2 ppm, 7% sucrose, 0.1% citric acid, strawberry flavour 0.015%
Description: Comparison in a Strawberry Drink
Base is 7% sucrose, 0.1% citric acid, and a proprietary strawberry flavour @0.015%

[7] = Test in vanilla milk; conditions: 2 ppm, milk 0.15% fat, 4% sucrose, Vaniline flavour 10 ppm + vanilla ext. 0.03%
Description: Base: Milk 0.15% fat, sweetened with 4% sucrose by weight, flavoured with proprietary
Vaniline flavour @ 10 ppm+Vanilla ext. @ 0.03%

CCCCC/C=C\C/C=C\CCCCCCCC(=O)NCCCC(=O)O [C18:2-gaba]
description by expert tasters ([1]; UHT milk 0% fat): Very creamy, milky, long lasting
description by expert tasters ([1]; UHT milk 1.5% fat): very creamy, milky, long lasting, salivating
description by expert tasters ([1]; UHT milk 3.0% fat): very creamy, milky, long lasting, taste like whipped cream
taste description [2]: very creamy and fresh strawberry
taste description [3]: full, sweeter, more vanillic, milk chocolate is enhanced, very long lasting
description by expert tasters [4]: beany, fatty, authentic, sweet
tasting result (trained panelists) [5]: Full, Salty, cheese bite, more mature
taste description [6]: fatty mouthfeel, creamy strawberry, fruity and juicy
taste description [7]: fatty, long lasting authentic vanilla, vanilla bean taste is enhanced
